In US8889704B2 (Array BioPharma Inc., priority 2011, dated 2014) one finds IC50 data, which are given here for 19 compounds.

Type in all cases: biochemical
The target in one test is recombinant rat PIM-3 (Rattus norvegicus, UniProt O70444). As to the kind of experiment: PIM-3 Assay (as Example A). The note with it: averaged IC50; 30 μM ATP, 3.75 μM PIM2tide, 0.5 nM PIM-3. An outline of the steps: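 33P incorporation from 30 μM [γ-33P]ATP into 3.75 μM PIM2tide by 0.5 nM rat PIM-3, 60 min at 22 °C in pH 7.4 MOPS buffer, read by P81 filter capture and scintillation counting. Compounds tested in 3-fold dilutions up to 10 μM final, 2% DMSO; percent-of-control data fitted by 4-parameter logistic for IC50.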

Test [1] addresses T1, GST-tagged recombinant full-length human Pim-2 (Homo sapiens, UniProt Q9P1W9).
T1 construct: GST-tagged recombinant full-length human Pim-2; GST
The experiment in a line: PIM-2 Assay (as Example A). The note with it: averaged IC50; 4 μM ATP, 1.0 μM PIM2tide, 1.5 nM Pim-2. An outline of the steps: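 IC50 was derived by 4-parameter logistic fitting of percent-of-control data over a 10-point, 3-fold series (highest 10 μM, 2% DMSO). Reactions held 1.5 nM GST-Pim-2 (full-length, human), 4 μM [γ-33P]ATP and 1.0 μM PIM2tide for 60 min at 22 °C, pH 7.4; 33P-peptide captured on P81 filters.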

Another test deals with PIM-1 (Homo sapiens, UniProt P11309). As to the kind of experiment: Enzyme PIM-1 Assay ([33P]ATP incorporation into PIM2tide, filter plate). The note with it: averaged IC50; 35 μM ATP, 7.5 μM PIM2tide, 0.25 nM PIM-1, 60 min at 22° C. An outline of the steps:
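Ten-point, 3-fold dilution series (10 μM top, 2% DMSO final) tested for inhibition of 33P transfer from 35 μM ATP to 7.5 μM PIM2tide by 0.25 nM PIM-1. Reaction 60 min, 22 °C, pH 7.4 MOPS/MgCl2 buffer; phosphocellulose capture, scintillation counting, IC50 where fitted POC equals 50.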

A word on the IC50: it is the midpoint of a concentration-inhibition curve.

Counter-ions that a name gives are not always drawn.

Chain of PIM-1 (P11309 whole entry, species assumed): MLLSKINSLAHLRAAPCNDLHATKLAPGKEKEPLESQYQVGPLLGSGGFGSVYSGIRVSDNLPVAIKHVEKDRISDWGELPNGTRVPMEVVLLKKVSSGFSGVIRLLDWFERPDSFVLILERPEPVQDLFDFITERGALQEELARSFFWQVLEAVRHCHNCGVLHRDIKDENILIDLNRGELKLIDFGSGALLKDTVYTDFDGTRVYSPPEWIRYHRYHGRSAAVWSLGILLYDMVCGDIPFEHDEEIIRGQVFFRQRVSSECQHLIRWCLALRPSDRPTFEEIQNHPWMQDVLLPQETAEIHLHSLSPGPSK
T1 sequence (Q9P1W9 whole entry): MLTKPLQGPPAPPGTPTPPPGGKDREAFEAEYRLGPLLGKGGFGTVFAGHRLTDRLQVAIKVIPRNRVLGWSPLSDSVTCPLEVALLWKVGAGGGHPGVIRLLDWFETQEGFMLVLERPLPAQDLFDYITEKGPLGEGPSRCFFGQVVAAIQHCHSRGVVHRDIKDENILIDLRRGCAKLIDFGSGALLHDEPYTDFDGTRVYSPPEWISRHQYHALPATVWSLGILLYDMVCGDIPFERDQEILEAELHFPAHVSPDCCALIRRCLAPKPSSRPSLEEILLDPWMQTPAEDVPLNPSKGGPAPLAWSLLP

As to `COCC(C)(C)Oc1cccc2ccc(-c3nnc4ccc([C@@H](N5CC[C@H](N)C5)C(F)(F)F)cn34)nc12` [Example 263, (S)-1-((R)-2,2,2-trifluoro-1-(3-(8-(1-methoxy-2-methylpropan-2-yloxy)quinolin-2-yl)-[1,2,4]triazolo[4,3-a]pyridin-6-yl)ethyl)pyrrolidin-3-amine formate], the half-inhibitory concentration (IC50) on recombinant rat PIM-3 was found to be 3 nM; in test [1], 454 nM; at PIM-1, 0.66 nM.
On to `COCC(C)(C)Oc1cc(F)cc2ccc(-c3nnc4ccc([C@@H](N5CC[C@H](N)C5)C(F)(F)F)cn34)nc12` [Example 264, (S)-1-((R)-2,2,2-trifluoro-1-(3-(6-fluoro-8-(1-methoxy-2-methylpropan-2-yloxy)quinolin-2-yl)-[1,2,4]triazolo[4,3-a]pyridin-6-yl)ethyl)pyrrolidin-3-amine formate], for which the IC50 on recombinant rat PIM-3 is 1.3 nM; in test [1] it was 255 nM; at PIM-1, 0.54 nM.
The matching figures for `N[C@H]1CCN([C@H](c2ccc3nnc(-c4ccc5ccc(CCO)cc5n4)n3c2)C(F)(F)F)C1` [Example 265, 2-(2-(6-((R)-1-((S)-3-aminopyrrolidin-1-yl)-2,2,2-trifluoroethyl)-[1,2,4]triazolo[4,3-a]pyridin-3-yl)quinolin-7-yl)ethanol dihydrochloride]: 1.3 nM, over 1000 nM and 0.53 nM.
For `CCSc1ccc2ccc(-c3nnc4ccc([C@@H](N5CC[C@H](N)C5)C(F)(F)F)cn34)nc2c1` [Example 266, (S)-1-((R)-1-(3-(7-(ethylthio)quinolin-2-yl)-[1,2,4]triazolo[4,3-a]pyridin-6-yl)-2,2,2-trifluoroethyl)pyrrolidin-3-amine hydrochloride], in that order: 1 nM, 690 nM and 0.5 nM.
For `N[C@H]1CCN([C@H](c2ccc3nnc(-c4ccc5ccc(SCCO)cc5n4)n3c2)C(F)(F)F)C1` [Example 267, 2-(2-(6-((R)-1-((S)-3-aminopyrrolidin-1-yl)-2,2,2-trifluoroethyl)-[1,2,4]triazolo[4,3-a]pyridin-3-yl)quinolin-7-ylthio)ethanol hydrochloride], in that order: 0.7 nM, 350 nM and 0.35 nM.
Take `CC(C)Sc1ccc2ccc(-c3nnc4ccc([C@@H](N5CC[C@H](N)C5)C(F)(F)F)cn34)nc2c1` [Example 268, (S)-1-((R)-2,2,2-trifluoro-1-(3-(7-(isopropylthio)quinolin-2-yl)-[1,2,4]triazolo[4,3-a]pyridin-6-yl)ethyl)pyrrolidin-3-amine hydrochloride]: the values for the 50% inhibitory concentration (IC50) (at recombinant rat PIM-3; in test [1]; against PIM-1) were 3.4 nM, over 1000 nM and 0.89 nM, respectively.
Regarding `COCCc1ccc2ccc(-c3nnc4ccc([C@@H](N5CC[C@H](N)C5)C(F)(F)F)cn34)nc2c1` [Example 269, (S)-1-((R)-2,2,2-trifluoro-1-(3-(7-(2-methoxyethyl)quinolin-2-yl)-[1,2,4]triazolo[4,3-a]pyridin-6-yl)ethyl)pyrrolidin-3-amine dihydrochloride], the half-inhibitory concentration (IC50) worked out at 2 nM at recombinant rat PIM-3, 413 nM in test [1] and 0.37 nM on PIM-1.
For `N#CCOc1cccc2ccc(-c3nnc4ccc([C@@H](N5CC[C@H](N)C5)C(F)(F)F)cn34)nc12` [Example 270, 2-(2-(6-((R)-1-((S)-3-aminopyrrolidin-1-yl)-2,2,2-trifluoroethyl)-[1,2,4]triazolo[4,3-a]pyridin-3-yl)quinolin-8-yloxy)acetonitrile formate], in that order: 1.9 nM, 434 nM and 0.38 nM.
Turning to `COCC(COC)Oc1cccc2ccc(-c3nnc4ccc([C@@H](N5CC[C@H](N)C5)C(F)(F)F)cn34)nc12` [Example 271, ((S)-1-((R)-1-(3-(8-(1,3-dimethoxypropan-2-yloxy)quinolin-2-yl)-[1,2,4]triazolo[4,3-a]pyridin-6-yl)-2,2,2-trifluoroethyl)pyrrolidin-3-aminedihydrochloride], the figures for the IC50 (at recombinant rat PIM-3; in test [1]; on PIM-1) were 4.3 nM, 647 nM and 0.73 nM, respectively.
Take `CC(C)(O)COc1cccc2ccc(-c3nnc4ccc([C@@H](N5CC[C@@](C)(N)C5)C(F)(F)F)cn34)nc12` [Example 272, 1-(2-(6-((R)-1-((R)-3-amino-3-methylpyrrolidin-1-yl)-2,2,2-trifluoroethyl)-[1,2,4]triazolo[4,3-a]pyridin-3-yl)quinolin-8-yloxy)-2-methylpropan-2-ol dihydrochloride]: the IC50 was determined as 0.5 nM on recombinant rat PIM-3, 124 nM in test [1] and 0.24 nM on PIM-1.
`CCSc1cccc2ccc(-c3nnc4ccc([C@@H](N5CC[C@H](N)C5)C(F)(F)F)cn34)nc12` [Example 273, (S)-1-((R)-1-(3-(8-(ethylthio)quinolin-2-yl)-[1,2,4]triazolo[4,3-a]pyridin-6-yl)-2,2,2-trifluoroethyl)pyrrolidin-3-amine hydrochloride]: the half-inhibitory concentration (IC50) is 43 nM on recombinant rat PIM-3, over 1000 nM in test [1] and 25.9 nM against PIM-1.
With `CCOCCOc1ccc2ccc(-c3nnc4ccc([C@@H](N5CC[C@H](N)C5)C(F)(F)F)cn34)nc2c1` [Example 274, (S)-1-((R)-1-(3-(7-(2-ethoxyethoxy)quinolin-2-yl)-[1,2,4]triazolo[4,3-a]pyridin-6-yl)-2,2,2-trifluoroethyl)pyrrolidin-3-amine dihydrochloride], the IC50 on recombinant rat PIM-3 worked out at 1.7 nM; in test [1] it was 961 nM; on PIM-1, 0.4 nM.
For `COCCCOc1ccc2ccc(-c3nnc4ccc([C@@H](N5CC[C@H](N)C5)C(F)(F)F)cn34)nc2c1` [Example 275, (S)-1-((R)-2,2,2-trifluoro-1-(3-(7-(3-methoxypropoxy)quinolin-2-yl)-[1,2,4]triazolo[4,3-a]pyridin-6-yl)ethyl)pyrrolidin-3-amine dihydrochloride], in that order: 0.7 nM, 376 nM and 0.2 nM.
The matching figures for `COC(C)(C)COc1cccc2ccc(-c3nnc4ccc([C@@H](N5CC[C@H](N)C5)C(F)(F)F)cn34)nc12` [Example 276, (S)-1-((R)-2,2,2-trifluoro-1-(3-(8-(2-methoxy-2-methylpropoxy)quinolin-2-yl)-[1,2,4]triazolo[4,3-a]pyridin-6-yl)ethyl)pyrrolidin-3-amine formate]: 0.3 nM, 44 nM and 0.2 nM.
For `CO[C@H](C)COc1ccc2ccc(-c3nnc4ccc([C@@H](N5CC[C@H](N)C5)C(F)(F)F)cn34)nc2c1` [Example 277, (S)-1-((R)-2,2,2-trifluoro-1-(3-(7-((R)-2-methoxypropoxy)quinolin-2-yl)-[1,2,4]triazolo[4,3-a]pyridin-6-yl)ethyl)pyrrolidin-3-amine dihydrochloride], in that order: 0.7 nM, 231 nM and 0.28 nM.
For `CC(C)(O)COc1ccc2ccc(-c3nnc4ccc([C@@H](N5CC[C@H](N)C5)C(F)(F)F)cn34)nc2c1` [Example 278, 1-(2-(6-((R)-1-((S)-3-aminopyrrolidin-1-yl)-2,2,2-trifluoroethyl)-[1,2,4]triazolo[4,3-a]pyridin-3-yl)quinolin-7-yloxy)-2-methylpropan-2-ol dihydrochloride], the IC50 at recombinant rat PIM-3 was 0.4 nM; in test [1], 180 nM; on PIM-1, 0.23 nM.
The matching figures for `CCOc1cc2nc(-c3nnc4ccc([C@@H](N5CC[C@@H](CN)C5)C(F)(F)F)cn34)ccc2cc1F` [Example 279, ((S)-1-((R)-1-(3-(7-ethoxy-6-fluoroquinolin-2-yl)-[1,2,4]triazolo[4,3-a]pyridin-6-yl)-2,2,2-trifluoroethyl)pyrrolidin-3-yl)methanamine hydrochloride]: 3.1 nM, 431 nM and 0.96 nM.
For `CCOc1cc2nc(-c3nnc4ccc([C@@H](N5CC[C@H](CN)C5)C(F)(F)F)cn34)ccc2cc1F` [Example 280, ((R)-1-((R)-1-(3-(7-ethoxy-6-fluoroquinolin-2-yl)-[1,2,4]triazolo[4,3-a]pyridin-6-yl)-2,2,2-trifluoroethyl)pyrrolidin-3-yl)methanamine hydrochloride], in that order: 2.5 nM, 418 nM and 0.62 nM.
The matching figures for `CSCCOc1ccc2ccc(-c3nnc4ccc([C@@H](N5CC[C@H](N)C5)C(F)(F)F)cn34)nc2c1` [Example 281, (S)-1-((R)-2,2,2-trifluoro-1-(3-(7-(2-(methylthio)ethoxy)quinolin-2-yl)-[1,2,4]triazolo[4,3-a]pyridin-6-yl)ethyl)pyrrolidin-3-amine hydrochloride]: 0.7 nM, 242 nM and 0.26 nM.
